The results in this text go back to publication PMC7997574, “Lead Optimization of Benzoxazolone Carboxamides as Orally Bioavailable and CNS Penetrant Acid Ceramidase Inhibitors” (Journal of Medicinal Chemistry, 2020).

The target of one data set is T1, AC (Homo sapiens, UniProt Q13510).
T1 sequence (Q13510 22-395): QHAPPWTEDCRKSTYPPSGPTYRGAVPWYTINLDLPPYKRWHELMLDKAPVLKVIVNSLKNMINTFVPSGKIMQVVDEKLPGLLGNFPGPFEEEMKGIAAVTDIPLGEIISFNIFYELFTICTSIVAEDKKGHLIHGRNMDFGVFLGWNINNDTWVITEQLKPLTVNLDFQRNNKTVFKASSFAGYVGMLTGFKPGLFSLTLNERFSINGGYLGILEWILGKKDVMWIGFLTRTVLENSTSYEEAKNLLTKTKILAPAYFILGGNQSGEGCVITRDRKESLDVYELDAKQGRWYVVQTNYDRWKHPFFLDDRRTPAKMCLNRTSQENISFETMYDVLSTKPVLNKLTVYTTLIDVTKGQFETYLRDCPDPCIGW
Put plainly: Fluorogenic hAC assay on hAC-enriched lysate of HEK293 cells. It is filed as biochemical. Further details: expressed in transfected cells. The method, then: HEK293 cells stably expressing hAC were grown in Dulbecco’s modified Eagle medium (DMEM) containing 10% FBS, 1% glutamine, 1 mM sodium pyruvate, and 500 μg mL^–1 G418. Cells were harvested, and pellets were stored at −80 °C until lysosomal-enriched lysate preparation. Cells were suspended in 20 mM Tris HCl (pH 7.5) with 0.32 M sucrose, sonicated, and centrifuged at 800 × g for 30 min at 4 °C. Supernatants were then centrifuged at 12000 × g for 30 min at 4 °C. Pellets were resuspended in PBS (pH 7.4) and subjected to three freeze–thaw cycles at −80 °C. The suspension was finally centrifuged at 105000 × g for 1 h at 4 °C, and protein concentration was measured in the supernatant with the bicinchoninic acid based protein assay. This hAC-enriched preparation allowed us to further optimize the enzymatic assay and to use small amounts of lysate (2 μg per well) at a 5 μM substrate (Rbm14–12) around its KM (KM = 5.0 μM).
The assay was performed in Optiplate 96-well black plates, with each reaction well containing a mixture of 25 mM NaOAc buffer (pH 4.5) and a fixed amount of protein (2 μg) in a volume of 85 μL. After 10 min of preincubation with test compounds (diluted 20× from DMSO stock solutions at different concentrations), the fluorogenic probe was added (diluted 40× from EtOH stock solution, final concentration 5 μM). After 3 h of incubation at 37 °C, reactions were stopped with 50 μL of MeOH and 100 μL of a 2.5 mg mL^–1 NaIO4 fresh solution in 100 mM glycine/NaOH buffer (pH 10.6). The plates were further incubated for 2 h at 37 °C in the dark, and fluorescence intensities were measured at excitation/emission wavelengths of 355/460 nm. Negative control samples consisted of the same incubation mixture in the absence of protein-enriched extracts. Data were plotted as a function of compound concentrations. IC50 values were calculated by nonlinear regression analysis using GraphPad Prism 5 (GraphPad Software Inc., CA, USA) applying a standard slope curve fitting. The reported IC50 values are the mean of at least three independent experiments performed in three technical replicates.

Data set [1] can be described thus: Chemical stability assay in PBS pH 7.4. It is filed as physicochemical. The conditions noted are these: phosphate-buffered saline; PBS, pH 7.4; read-out: chemical stability t1/2. As for the experimental part: Chemical stability of selected compounds was evaluated under physiological pH conditions (0.01 M phosphate-buffered saline, pH 7.4) for up to 8 h. The buffer was added with 10% MeCN. Stock solutions of each compound (10 mM) were freshly prepared in MeCN. Each compound was incubated at a final concentration of 1 μM in preheated buffer (37 °C). The sample solutions were divided into aliquots in glass vials (preheated at 37 °C) for each time point. The samples were maintained at 37 °C in the UPLC/MS autosampler during the study (no shaking). A reference solution of each compound (final concentration: 1 μM) in preheated MeCN was prepared from the stock solutions and maintained at 37 °C in the UPLC/MS autosampler during the study. For each time point, the samples were analyzed directly by LC/MS without any further sample preparation. The samples were analyzed by integrating the corresponding MRM peak areas. The relative compound concentration was calculated by dividing the peak area at each time point by the peak area at t = 0 min. The reference solution was analyzed at the beginning (t = 0 min) and at the end of the study (t = 8 h). The apparent half-life (t1/2) of the disappearance of the compound was calculated using the best fitting equation by GraphPad Prism (GraphPad Software, Inc., USA). The analyses were performed on a Waters ACQUITY UPLC/MS TQD system consisting of a triple quadrupole detector (TQD) MS equipped with an ESI interface and a photodiode array detector. The analyses were run on an ACQUITY UPLC BEH C18 1.7 μm 2.1 × 50 mm column with a VanGuard BEH C18 1.7 μm preolumn at 40 °C. For each compound, the appropriate mobile phase was chosen. ESI was applied in positive mode. Values are the mean of at least two independent experiments performed in two technical replicates.

Data set [2] in a line: Aqueous kinetic solubility assay. The format is physicochemical. As to conditions: PBS, pH 7.4. As for the experimental part: The aqueous kinetic solubility was determined from a 10 mM MeCN stock solution of test compound in Phosphate-Buffered Saline (PBS) at pH 7.4. The study was performed by incubation of an aliquot of 10 mM MeCN stock solution in PBS (pH 7.4) at a target concentration of 250 μM. The incubation was carried out under shaking at 25 °C for 1 h followed by centrifugation at 21100 × g for 30 min. The supernatant was analyzed by UPLC/MS for the quantification of the dissolved compound (in μM) by UV at a specific wavelength (215 nm). […] The UPLC/MS analyses were performed on a Waters ACQUITY UPLC/MS system consisting of a single quadrupole detector (SQD) Mass Spectrometer (MS) equipped with an Electrospray Ionization (ESI) interface and a Photodiode Array Detector (PDA). The PDA range was 210–400 nm. ESI in positive mode was used in the mass scan range of 100–650 Da. The analyses were run on an ACQUITY UPLC BEH C18 column (50 × 2.1 mm ID, particle size 1.7 μm) with a VanGuard BEH C18 precolumn (5 × 2.1 mm ID, particle size 1.7 μm), using 10 mM NH4OAc in H2O at pH 5 adjusted with AcOH (A) and 10 mM NH4OAc in MeCN/H2O (95:5) at pH 5 (B) as the mobile phase. Values are reported as mean values of ≥2 experiments performed.

The nature of data set [3]: In vitro microsomal stability study. The format is in vitro ADME. As to conditions: mouse liver microsomes; for m-LM [% at 60 min]: % remaining at 60 min; for half-life at 4.6 μM / half-life at 1 h, 4.6 µM: pH 7.4, read-out: m-LM t1/2. As for the experimental part:
Freshly prepared 10 mM MeCN stock solution of test compound was preincubated at 37 °C for 15 min with mouse liver microsomes added in 0.1 M Tris HCl buffer (pH 7.4). The final concentration was 4.6 μM. After preincubation, the cofactors (NADPH, G6P, G6PDH, and MgCl2 predissolved in 0.1 M Tris HCl) were added to the incubation mixture, and the incubation was continued at 37 °C for 1 h. At each time point (0, 5, 15, 30, and 60 min), 30 μL of incubation mixture was diluted with 200 μL of cold MeCN spiked with 200 nM internal standard followed by centrifugation at 3300 × g for 15 min. The supernatant was further diluted with H2O (1:1) for analysis. The concentration of the test compound was quantified by LC/MS/MS on a Waters ACQUITY UPLC/MS TQD system consisting of a TQD MS equipped with an ESI interface. The analyses were run on an ACQUITY UPLC BEH C18 (50 × 2.1 mm ID, particle size 1.7 μm) with a VanGuard BEH C18 precolumn (5 × 2.1 mm ID, particle size 1.7 μm) at 40 °C. For each compound, the appropriate mobile phase was chosen. ESI was applied in positive mode. The percentage of test compound remaining at each time point relative to t = 0 was calculated. t1/2 was determined by a one-phase decay equation using a nonlinear regression of compound concentration vs time. Values are the mean of at least two independent experiments performed in two technical replicates.

Data set [4] in a line: In vitro plasma stability study. The format is in vitro ADME. The conditions noted are these: mouse plasma; read-out: m-plasma t1/2. The method, then:
Freshly prepared 10 mM MeCN stock solution of test compound was diluted 50-fold with DMSO/H2O (1:1) and incubated at 37 °C for 2 h with mouse plasma added in 5% DMSO (preheated at 37 °C for 10 min). The final concentration was 2 μM. At each time point (0, 5, 15, 30, 60, and 120 min), 50 μL of incubation mixture was diluted with 200 μL of cold MeCN spiked with 200 nM internal standard followed by centrifugation at 3300 × g for 20 min. The supernatant was further diluted with H2O (1:1) for analysis. The concentration of test compound was quantified by LC/MS/MS on a Waters ACQUITY UPLC/MS TQD system consisting of a TQD MS equipped with an ESI interface. The analyses were run on an ACQUITY UPLC BEH C18 (50 × 2.1 mm ID, particle size 1.7 μm) with a VanGuard BEH C18 precolumn (5 × 2.1 mm ID, particle size 1.7 μm) at 40 °C. For each compound, the appropriate mobile phase was chosen. ESI was applied in positive mode. The response factors, calculated on the basis of the internal standard peak area, were plotted over time. When possible, response vs time profiles were fitted with Prism (GraphPad Software, Inc., USA) to estimate compound t1/2 in plasma. Values are the mean of at least two independent experiments performed in two technical replicates.

Setting [5] is: hAC expressed in HEK-293 cells, read-out: hAC IC50 (μM)±SD.

≈ marks a conversion by molar mass, not a printed value. Read-outs that look alike come from different tables or passages of the source. Bounds are passed on as bounds.

Consider `O=C(NCCCCc1ccccc1)n1c(=O)oc2cnccc21` [8b, 2-Oxo-N-(4-phenylbutyl)oxazolo[5,4-c]pyridine-1-carboxamide], for which the IC50 – broadly, the concentration needed to halve the response being measured – at AC (read-out: hAC IC50) came to 0.003 µM. Further, in data set [1], the half-life at 1 μM is < 15 min.
For the compound `CC(C)CNC(=O)n1c(=O)oc2cc(C3CCCN(C)C3)ccc21` (racemic) [compound 27, (±)-N-Isobutyl-6-(1-methyl-3-piperidyl)-2-oxo-1,3-benzoxazole-3-carboxamide], the half-inhibitory concentration (IC50) at AC (setting [5]) worked out at 1.75 ± 0.705 µM. In addition, the IC50 at AC (supplementary csv, read-out: hAC, IC50) came out at 1.62 ± 0.649 µM. Also, the solubility – broadly, the dissolved amount per volume that the medium holds – at 1 h in data set [2] is > 250 µM. In data set [3], the “m-LM [% at 60 min]” value is on record as 70% and the half-life at 4.6 μM was > 60 min. Also, in data set [4], the half-life at 2 µM stood at 50 min.
`CN1CCC(c2cc3oc(=O)n(C(=O)NCCCCc4ccccc4)c3cc2F)CC1` [22p, 5-Fluoro-6-(1-methyl-4-piperidyl)-2-oxo-N-(4-phenylbutyl)-1,3-benzoxazole-3-carboxamide]: the 50% inhibitory concentration (IC50) at AC (setting [5]) is 0.024 ± 0.002 µM. For the same compound, the concentration in solution in data set [2] (solubility at 1 h) came to 70 µM (≈ 29.8 µg/mL). Further, in data set [3], the “m-LM [% at 60 min]” value is given as 70% and the half-life at 4.6 μM is > 60 min. For the same compound, the half-life at 2 µM in data set [4] was 20 min.
Turning to `CN1CCC(c2ccc3c(c2)oc(=O)n3C(=O)NCCCCc2ccccc2)CC1` [22e, 6-(1-Methyl-4-piperidyl)-2-oxo-N-(4-phenylbutyl)-1,3-benzoxazole-3-carboxamide], on AC (setting [5]), the IC50 was 0.129 ± 0.008 µM. In data set [2], the concentration in solution (solubility at 1 h) came to 120 µM (≈ 48.9 µg/mL). Also, in data set [3], the half-life at 1 h, 4.6 µM is 40 min. The half-life at 2 µM in data set [4] was found to be 50 min.
For `CCCCCNC(=O)n1c(=O)oc2cc(C3CCN(C)CC3)ccc21` [22k, 6-(1-Methyl-4-piperidyl)-2-oxo-N-pentyl-1,3-benzoxazole-3-carboxamide], the IC50 at AC (setting [5]) amounted to 0.396 ± 0.075 µM. In data set [2], this compound yielded a solubility at 1 h of 240 µM (≈ 82.9 µg/mL). For the same compound, in data set [3], the “m-LM [% at 60 min]” value was >60 [60%] and the half-life at 4.6 μM was > 60 min. Besides, in data set [4], the half-life at 2 µM was found to be 75 min and the half-life at 2 μM was > 60 min.
For `CC(C)CNC(=O)n1c(=O)oc2c(C3CCN(C)CC3)cccc21` [compound 25, N-Isobutyl-7-(1-methyl-4-piperidyl)-2-oxo-1,3-benzoxazole-3-carboxamide], the IC50 on AC (setting [5]) turned out to be 0.535 ± 0.073 µM. The compound also displayed a solubility at 1 h in data set [2] of 230 µM (≈ 76.2 µg/mL). Moreover, the half-life at 1 h, 4.6 µM in data set [3] came to 30 min. In data set [4], the half-life at 2 µM was determined as 40 min.
In the case of `CN1CCC(c2ccc3c(c2)oc(=O)n3C(=O)NCCCCc2ccc(F)cc2)CC1` [22o, N-[4-(4-Fluorophenyl)butyl]-6-(1-methyl-4-piperidyl)-2-oxo-1,3-benzoxazole-3-carboxamide], the concentration for half-maximal inhibition (IC50) at AC (setting [5]) was determined as 0.094 ± 0.03 µM. This compound also registered a solubility at 1 h in data set [2] of 22 µM (≈ 9.36 µg/mL). Moreover, in data set [3], the half-life at 1 h, 4.6 µM was determined as 30 min. The half-life at 2 µM in data set [4] worked out at 20 min.
As for `CN1CCC(c2ccc3c(c2)oc(=O)n3C(=O)NCCOCc2ccccc2)CC1` [22j, N-(2-Benzyloxyethyl)-6-(1-methyl-4-piperidyl)-2-oxo-1,3-benzoxazole-3-carboxamide], at AC (setting [5]), the IC50 came to 0.215 ± 0.013 µM. In addition, the concentration in solution in data set [2] (solubility at 1 h) was 73 µM (≈ 29.9 µg/mL). For the same compound, the half-life at 1 h, 4.6 µM in data set [3] was 30 min. In addition, the half-life at 2 µM in data set [4] was 40 min.
For `CC(C)CN1CCC(c2ccc3c(c2)oc(=O)n3C(=O)NCCCCc2ccccc2)CC1` [22h, 6-(1-Isobutyl-4-piperidyl)-2-oxo-N-(4-phenylbutyl)-1,3-benzoxazole-3-carboxamide], the IC50 on AC (setting [5]) amounted to 0.12 ± 0.03 µM. The solubility at 1 h in data set [2] was < 1 µM. Moreover, in data set [3], the half-life at 4.6 μM came out at 60 min. In data set [4], the half-life at 2 μM was determined as 60 min.
